Data: article PMC8659243, “Design, Synthesis and Tumour-Selective Toxicity of Novel 1-[3-{3,5-Bis(benzylidene)-4-oxo-1-piperidino}-3-oxopropyl]-4-piperidone Oximes and Related Quaternary Ammonium Salts” (Molecules, 2021)
Structures can show the parent of a compound that is named as a salt.

Columns and labels:
HCT-116 cells = experiment: NCI in vitro screen, colon cancer HCT-116; assay type: cell-based; details: Homo sapiens
Source text: (§1) One particular reference drug is 5-fluorouracil, which is used in treating colon cancers.

K-562 cells = experiment: NCI in vitro screen, leukemia K-562; assay type: cell-based; details: Homo sapiens, K562
Source text: (§2) In view of the encouraging result with CEM leukemic cells, consideration was given to an assessment in the NCI in vitro screening program. The oximes, but not the quaternary ammonium salts, were accepted for bioevaluation. Examination of the mean graphs confirms the sensitivity of leukemic cells to these compounds.

colon cancer cells = experiment: NCI in vitro screen, average of colon cancer cells; assay type: cell-based; details: Homo sapiens
Source text: as §1

HL-60 (TB) cells = experiment: NCI in vitro screen, leukemia HL-60 (TB); assay type: cell-based; details: Homo sapiens
Source text: as §2

[1] = test system: Ca9-22, HSC-2 and HSC-4 cells; experiment: Average over Ca9-22, HSC-2 and HSC-4 neoplastic cells; assay type: cell-based, human; details: for CC50: Homo sapiens, average of Ca9-22, HSC-2 and HSC-4, read-out: Average CC50; for Average SI: average of SI for Ca9-22, HSC-2 and HSC-4
Description: In order to assess whether the compounds in series 3 and 4 are more toxic to neoplasms than non-malignant cells, selective index (SI) figures were calculated. In the in vivo situation, a tumour is surrounded by a number of non-malignant cells.
In order to identify the most promising lead compounds in terms of both cytotoxic potencies and favourable SI values, potency–selectivity expression (PSE) values were computed. […] Outstanding results may be noted for four compounds that have PSE values in excess of 100,000 namely 3d, 4c–e. […] However, the relative SI/PSE distribution patterns between series 3 and 4 (from a to h) are nearly superimposable with each other (Figure 3). […] It has been reported that 3,5-bis(3-iodo-5-methoxy-4-propoxybenzylidene)-N-acetylpiperidin-4-one inhibited tubulin and destabilization of microtubules, while 3,5-bis(3,4,5-trimethoxybenzylidene)-N-benzoylpiperidin-4-one destabilizes the microtubules. Thus, it remained to investigate whether compound 4d acts as an inhibitor of the microtubule.
(§3) A literature procedure was followed when the compounds in series 3 and 4 were evaluated against three human oral squamous cell carcinoma cell lines Ca9-22 (RCB-1976), HSC-2 (RCB1945), HSC-4 (RCB1902) (purchased from RIKEN Cell Bank, Tukuba, Japan) and three human normal oral cells, gingival fibroblast (HGF), periodontal ligament fibroblast (HPLF) and pulp cells (HPC) (established according to the guideline of the intramural ethic committee, A0808) except the duration of incubation was increased from 24 h to 48 h. In brief, various concentrations of the compounds were added to the DMEM media, which was supplemented by 10% heat-inactivated fetal bovine serum. Incubation was undertaken at 37 °C. At the completion of the experiment, cell viability was determined by the MTT method.

HSC-2 cells = experiment: Cytotoxicity against HSC-2 cells, MTT method, 48 h; assay type: cell-based, human; details: for CC50: Homo sapiens, HSC-2, concentration required to kill 50% of the cells, 48 h, MTT; for SI HSC-2: average CC50 towards HGF, HPLF, HPC divided by CC50 against HSC-2
Description: as §3

SR cells = experiment: NCI in vitro screen, leukemia SR; assay type: cell-based; details: Homo sapiens
Source text: as §2

[2] = Cytotoxicity against non-malignant HGF cells, MTT method, 48 h; assay type: cell-based; details: human, gingival fibroblasts (HGF)
Description: as §3

[3] = Cytotoxicity against non-malignant HPC cells, MTT method, 48 h; assay type: cell-based; details: human, pulp cells (HPC)
Description: as §3

HCC-2998 cells = experiment: NCI in vitro screen, colon cancer HCC-2998; assay type: cell-based; details: Homo sapiens
Source text: as §1

HT29 cells = experiment: NCI in vitro screen, colon cancer HT29; assay type: cell-based; details: Homo sapiens, HT-29
Source text: as §1

KM12 cells = experiment: NCI in vitro screen, colon cancer KM12; assay type: cell-based; details: Homo sapiens
Source text: as §1

leukemia cells = experiment: NCI in vitro screen, average of leukemia cells; assay type: cell-based; details: Homo sapiens
Source text: as §2

HCT-15 cells = experiment: NCI in vitro screen, colon cancer HCT-15; assay type: cell-based; details: Homo sapiens
Source text: as §1

Ca9-22 cells = experiment: Cytotoxicity against Ca9-22 cells, MTT method, 48 h; assay type: cell-based, human; details: for CC50: Homo sapiens, Ca9-22, concentration required to kill 50% of the cells, 48 h, MTT, read-out: CC50 Ca9-22; for SI Ca9-22: average CC50 towards HGF, HPLF, HPC divided by CC50 against Ca9-22
Description: as §3

HSC-4 cells = experiment: Cytotoxicity against HSC-4 cells, MTT method, 48 h; assay type: cell-based, human; details: for CC50: Homo sapiens, HSC-4, concentration required to kill 50% of the cells, 48 h, MTT, read-out: CC50 HSC-4; for SI HSC-4: average CC50 towards HGF, HPLF, HPC divided by CC50 against HSC-4
Description: as §3

RPMI-8226 cells = experiment: NCI in vitro screen, leukemia RPMI-8226; assay type: cell-based; details: Homo sapiens
Source text: as §2

[4] = Stability by 1H NMR in 9:1 deuterated dimethylsulfoxide and deuterium oxide; assay type: physicochemical; details: 37 °C
Molt-4 cells = experiment: NCI in vitro screen, leukemia Molt-4; assay type: cell-based; details: Homo sapiens
Source text: as §2

All Cell Lines = experiment: NCI in vitro screen, all cell lines; assay type: cell-based; details: Homo sapiens
Source text: as §1

[5] = Average over HGF, HPLF and HPC non-malignant cells; assay type: cell-based; details: human, HPLF and HPC non-malignant cells (average of the three)
Description: as §3

[6] = test system: CEM T-lymphoblastic leukemia cells; experiment: Cytotoxicity against CEM cells, MTT method, 24 h; assay type: cell-based; details: Homo sapiens, CCRF-CEM, concentration required to inhibit cell growth by 50%
Description: The method used for the evaluation of various compounds against human CEM cells has been reported previously. In brief, cells were grown in RPMI-1640 medium supplemented with 10% heat-inactivated fetal bovine serum. Different concentrations of compounds were added to the media, and after 24 h incubation, cytotoxicity was measured by the MTT method.

SW-620 cells = experiment: NCI in vitro screen, colon cancer SW-620; assay type: cell-based; details: Homo sapiens
Source text: as §1

[7] = Cytotoxicity against non-malignant HPLF cells, MTT method, 48 h; assay type: cell-based; details: human, periodontal ligament fibroblasts (HPLF)
Description: as §3

Colo205 cells = experiment: NCI in vitro screen, colon cancer Colo205; assay type: cell-based; details: Homo sapiens, COLO 205
Source text: as §1

Structure (SMILES) | IC50 (HCT-116 cells) [nM] | IC50 (K-562 cells) [nM] | IC50 (colon cancer cells) [nM] | IC50 (HL-60 (TB) cells) [nM] | CC50 [1] [nM] | Average SI [1] | CC50 (HSC-2 cells) [nM] | SI HSC-2 (HSC-2 cells) | IC50 (SR cells) [nM] | CC50 at 48 h [2] [nM] | CC50 at 48 h [3] [nM] | IC50 (HCC-2998 cells) [nM] | IC50 (HT29 cells) [nM] | IC50 (KM12 cells) [nM] | IC50 (leukemia cells) [nM] | IC50 (HCT-15 cells) [nM] | CC50 (Ca9-22 cells) [nM] | SI Ca9-22 (Ca9-22 cells) | CC50 (HSC-4 cells) [nM] | SI HSC-4 (HSC-4 cells) | other results
O=C1/C(=C/c2ccccc2)CN(C(=O)CCN2CCC(=NO)CC2)C/C1=C\c1ccccc1 (as salt: hydrochloride) [Compound 3a, (3~{E},5~{E})-3,5-bis-benzylidine-1-[3-(4-hydroximino-1-piperidyl)propanoyl]piperidin-4-one hydrochloride] |  |  |  |  |  |  |  |  |  |  |  |  |  |  |  |  |  |  |  |  | melting point: 172.3 °C
O=C1/C(=C/c2ccccc2)CN(C(=O)CCN2CCC(=NO)CC2)C/C1=C\c1ccccc1 [Compound 3a, (3~{E},5~{E})-3,5-bis-benzylidine-1-[3-(4-hydroximino-1-piperidyl)propanoyl]piperidin-4-one hydrochloride] | 680 | 400 | 1100 | 2600 | 660 | 18.1 | 890 ± 60 | 12.4 | 330 | 7110 ± 470 | 11500 ± 2570 | 1740 | 1200 | 660 | 850 | 1380 | 650 ± 70 | 16.9 | 440 ± 160 | 25.0 | IC50 (RPMI-8226 cells): 320 nM; stability: 1H NMR spectra in dissolution and after 48 h incubation [4]: identical; IC50 (Molt-4 cells): 690 nM; IC50 (All Cell Lines): 1510 nM; CC50 at 48 h [5]: 11000 nM; IC50 [6]: 5390 ± 260 nM; IC50 (SW-620 cells): 320 nM; CC50 at 48 h [7]: 14300 ± 3790 nM; IC50 (Colo205 cells): 1700 nM
O=C1/C(=C/c2ccc([N+](=O)[O-])cc2)CN(C(=O)CCN2CCC(=NO)CC2)C/C1=C\c1ccc([N+](=O)[O-])cc1 [Compound 3e, (3~{E},5~{E})-1-[3-(4-hydroximino-1-piperidyl)propanoyl]-3,5-bis[(4-nitrophenyl)methylene]piperidin-4-one] | 490 | 280 | 460 | 1550 | 80 | 57.5 | 120 ± 90 | 27.3 | 100 | 1670 ± 310 | 5070 ± 210 | 1170 | 330 | 290 | 500 | 360 | 30 | 109 | 90 ± 20 | 36.3 | IC50 (RPMI-8226 cells): 300 nM; IC50 (Molt-4 cells): 400 nM; IC50 (All Cell Lines): 1790 nM; CC50 at 48 h [5]: 3270 nM; IC50 [6]: 11600 ± 310 nM; IC50 (SW-620 cells): 200 nM; CC50 at 48 h [7]: 3060 ± 160 nM; IC50 (Colo205 cells): 400 nM
O=C1/C(=C/c2ccc(Cl)cc2)CN(C(=O)CCN2CCC(=NO)CC2)C/C1=C\c1ccc(Cl)cc1 [Compound 3c, (3~{E},5~{E})-3,5-bis[(4-chlorophenyl)methylene]-1-[3-(4-hydroximino-1-piperidyl)propanoyl]piperidin-4-one hydrochloride] | 210 | 160 | 260 | 560 | 320 | 69.5 | 660 ± 140 | 20.5 | 40 | 6400 ± 350 | 26100 ± 35900 | 310 | 300 | 220 | 240 | 270 | 120 ± 80 | 113 | 180 ± 30 | 75.0 | IC50 (RPMI-8226 cells): 160 nM; IC50 (Molt-4 cells): 280 nM; IC50 (All Cell Lines): 1620 nM; CC50 at 48 h [5]: 13500 nM; IC50 [6]: 15900 ± 940 nM; IC50 (SW-620 cells): 150 nM; CC50 at 48 h [7]: 8030 ± 60 nM; IC50 (Colo205 cells): 350 nM
COc1cc(/C=C2\CN(C(=O)CCN3CCC(=NO)CC3)C/C(=C\c3cc(OC)c(OC)c(OC)c3)C2=O)cc(OC)c1OC [Compound 3h, (3~{E},5~{E})-1-[3-(4-hydroximino-1-piperidyl)propanoyl]-3,5-bis[(3,4,5-trimethoxyphenyl)methylene]piperidin-4-one] | 210 | 320 | 390 | 270 | 200 | 22.5 | 230 ± 20 | 13.4 | 300 | 2180 ± 230 | 1800 ± 600 | 210 | 330 | 200 | 300 | 1230 | 70 ± 30 | 43.9 | 300 ± 150 | 10.2 | IC50 (RPMI-8226 cells): 320 nM; IC50 (Molt-4 cells): 290 nM; IC50 (All Cell Lines): 1220 nM; CC50 at 48 h [5]: 3070 nM; IC50 [6]: 2310 ± 300 nM; IC50 (SW-620 cells): 300 nM; CC50 at 48 h [7]: 5220 ± 690 nM; IC50 (Colo205 cells): 260 nM
